Results: a compilation of properties of binary mixtures (doi:10.1021/acs.jpcb.5b11900)

Assay: xn = mol fraction of the nth substance listed
Conditions: 101 kPa

CC[NH+](CC)CC.O=[N+]([O-])[O-] + CC[NH3+].O=[N+]([O-])[O-]
Conditions | electrical conductivity [S/m] | viscosity [mPa·s]
293.15 K, x1 = 0.0499 | 1.67 | 46.6
293.15 K, x1 = 0.0999 | 1.45 | 51.2
293.15 K, x1 = 0.3995 | 0.71 | 90.2
293.15 K, x1 = 0.4472 | 0.62 | 100
293.15 K, x1 = 0.5003 | 0.56 | 108.1
293.15 K, x1 = 0.5485 | 0.56 | 105.4
298.15 K, x1 = 0.0499 | 1.96 | 39
298.15 K, x1 = 0.0999 | 1.71 | 42.5
298.15 K, x1 = 0.1997 | 1.36 | 51.1
298.15 K, x1 = 0.25 | 1.16 | 56.2
298.15 K, x1 = 0.2993 | 1.02 | 62.4
298.15 K, x1 = 0.3475 | 0.95 | 66.9
298.15 K, x1 = 0.3995 | 0.85 | 71.8
298.15 K, x1 = 0.4472 | 0.75 | 79.3
298.15 K, x1 = 0.5003 | 0.68 | 85.2
298.15 K, x1 = 0.5485 | 0.68 | 83.1
303.15 K, x1 = 0.0499 | 2.27 | 32.9
303.15 K, x1 = 0.0999 | 1.99 | 35.7
303.15 K, x1 = 0.149 | 1.77 | 37.9
303.15 K, x1 = 0.1997 | 1.59 | 42.5
303.15 K, x1 = 0.25 | 1.36 | 46.5
303.15 K, x1 = 0.2993 | 1.2 | 51.4
303.15 K, x1 = 0.3995 | 1.01 | 58.5
303.15 K, x1 = 0.4472 | 0.9 | 64.3
303.15 K, x1 = 0.5003 | 0.82 | 68.8
303.15 K, x1 = 0.5485 | 0.81 | 67
308.15 K, x1 = 0.0499 | 2.6 | 28.1
308.15 K, x1 = 0.0999 | 2.29 | 30.3
308.15 K, x1 = 0.149 | 2.05 | 32.1
308.15 K, x1 = 0.1997 | 1.84 | 35.7
308.15 K, x1 = 0.25 | 1.58 | 39
308.15 K, x1 = 0.2993 | 1.4 | 42.8
308.15 K, x1 = 0.3475 | 1.31 | 45.4
308.15 K, x1 = 0.3995 | 1.18 | 48.3
308.15 K, x1 = 0.4472 | 1.06 | 52.8
308.15 K, x1 = 0.5003 | 0.96 | 56.3
308.15 K, x1 = 0.5485 | 0.96 | 54.7
313.15 K, x1 = 0.0499 | 2.96 | 24.1
313.15 K, x1 = 0.0999 | 2.61 | 26
313.15 K, x1 = 0.149 | 2.35 | 27.7
313.15 K, x1 = 0.1997 | 2.12 | 30.7
313.15 K, x1 = 0.25 | 1.81 | 33
313.15 K, x1 = 0.2993 | 1.63 | 36.1
313.15 K, x1 = 0.3475 | 1.52 | 38.5
313.15 K, x1 = 0.5003 | 1.13 | 47.1
313.15 K, x1 = 0.5485 | 1.12 | 45.8
318.15 K, x1 = 0.0499 | 3.33 | 21
318.15 K, x1 = 0.0999 | 2.95 | 22.6
318.15 K, x1 = 0.149 | 2.66 | 23.7
318.15 K, x1 = 0.1997 | 2.41 | 26
318.15 K, x1 = 0.25 | 2.07 | 28.2
318.15 K, x1 = 0.2993 | 1.86 | 30.6
318.15 K, x1 = 0.3475 | 1.74 | 32.3
318.15 K, x1 = 0.3995 | 1.58 | 34.1
318.15 K, x1 = 0.4472 | 1.41 | 36.9
318.15 K, x1 = 0.5003 | 1.3 | 39.1
318.15 K, x1 = 0.5485 | 1.29 | 37.9
323.15 K, x1 = 0.0499 | 3.73 | 18.4
323.15 K, x1 = 0.149 | 2.99 | 20.6
323.15 K, x1 = 0.1997 | 2.71 | 22.5
323.15 K, x1 = 0.25 | 2.34 | 24.2
323.15 K, x1 = 0.2993 | 2.11 | 26.3
323.15 K, x1 = 0.3475 | 1.97 | 27.6
323.15 K, x1 = 0.4472 | 1.61 | 31.3
323.15 K, x1 = 0.5485 | 1.48 | 32.1
328.15 K, x1 = 0.0499 | – | 16.3
328.15 K, x1 = 0.0999 | – | 17.3
328.15 K, x1 = 0.1997 | – | 19.7
328.15 K, x1 = 0.25 | – | 21
328.15 K, x1 = 0.2993 | – | 22.8
328.15 K, x1 = 0.3475 | – | 23.9
328.15 K, x1 = 0.4472 | – | 26.9
333.15 K, x1 = 0.0499 | – | 14.4
333.15 K, x1 = 0.0999 | – | 15.3
333.15 K, x1 = 0.149 | – | 16.1
333.15 K, x1 = 0.25 | – | 18.4
333.15 K, x1 = 0.2993 | – | 19.9
333.15 K, x1 = 0.3475 | – | 21
333.15 K, x1 = 0.3995 | – | 22
333.15 K, x1 = 0.4472 | – | 23.5
338.15 K, x1 = 0.0499 | – | 12.9
338.15 K, x1 = 0.0999 | – | 13.7
338.15 K, x1 = 0.149 | – | 14.2
338.15 K, x1 = 0.1997 | – | 15.2
338.15 K, x1 = 0.25 | – | 16.3
338.15 K, x1 = 0.3475 | – | 18.2
338.15 K, x1 = 0.3995 | – | 19
338.15 K, x1 = 0.5003 | – | 21.2
338.15 K, x1 = 0.5485 | – | 20.5
343.15 K, x1 = 0.0999 | – | 12.3
343.15 K, x1 = 0.149 | – | 12.7
343.15 K, x1 = 0.1997 | – | 13.5
343.15 K, x1 = 0.25 | – | 14.5
343.15 K, x1 = 0.3475 | – | 16.1
343.15 K, x1 = 0.3995 | – | 16.8
343.15 K, x1 = 0.4472 | – | 17.8
343.15 K, x1 = 0.5003 | – | 19.3
343.15 K, x1 = 0.5485 | – | 17.9
348.15 K, x1 = 0.0499 | – | 10.5
348.15 K, x1 = 0.149 | – | 11.4
348.15 K, x1 = 0.1997 | – | 12.1
348.15 K, x1 = 0.25 | – | 13
348.15 K, x1 = 0.3475 | – | 14.3
348.15 K, x1 = 0.3995 | – | 14.9
353.15 K, x1 = 0.0999 | – | 9.6
353.15 K, x1 = 0.149 | – | 10.4
353.15 K, x1 = 0.1997 | – | 11
353.15 K, x1 = 0.25 | – | 11.7
353.15 K, x1 = 0.3475 | – | 13
353.15 K, x1 = 0.3995 | – | 13.5
353.15 K, x1 = 0.4472 | – | 14.2
